Laboratory results reported in patent publication US20100298141A1, “SUBSTITUTED PYRIDINE N-OXIDE HERBICIDES” (E. I. DU PONT DE NEMOURS AND COMPANY, priority 2007, published 2010).

What was measured:
[1] = test system: barnyardgrass; experiment: Test A pre-/postemergence greenhouse test; format: in vivo, Echinochloa crus-galli; details: for Plant response rating, Barnyardgrass: 0 to 100 scale where 0 is no effect and 100 is complete control; for Barnyardgrass plant response rating: 0 to 100 scale
Summary of the method: (§1)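 Seeds sown in a loam soil–sand blend got a preemergence directed soil spray of compound in a non-phytotoxic solvent mixture containing surfactant. Postemergence sprays of the same formulation went at the same time onto plants 2–10 cm tall at the one- to two-leaf stage. Injury was scored visually against untreated controls after about ten days in the greenhouse.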

[2] = test system: crabgrass; experiment: Test A pre-/postemergence greenhouse test; format: in vivo, Digitaria sanguinalis; details: for Plant response rating, Crabgrass, Large: 0 to 100 scale where 0 is no effect and 100 is complete control; for Crabgrass, Large plant response rating: 0 to 100 scale
Summary of the method: as §1

[3] = test system: velvetleaf; experiment: Test A pre-/postemergence greenhouse test; format: in vivo, Abutilon theophrasti; details: for Plant response rating, Velvetleaf: 0 to 100 scale where 0 is no effect and 100 is complete control; for Velvetleaf plant response rating: 0 to 100 scale
Summary of the method: as §1

[4] = test system: corn; experiment: Test A pre-/postemergence greenhouse test; format: in vivo, Zea mays; details: for Plant response rating, Corn: 0 to 100 scale where 0 is no effect and 100 is complete control; for Corn plant response rating: 0 to 100 scale
Summary of the method: as §1

[5] = test system: green foxtail; experiment: Test C pre-/postemergence test; format: in vivo, Setaria viridis
Summary of the method: (§2)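 Test chemicals were formulated with surfactant in a non-phytotoxic solvent and sprayed both on freshly planted seeds (preemergence) and on 1- to 4-leaf plants of 2–18 cm (postemergence). Flooded-paddy pots received compound directly into 3 cm of standing water, maintained for the test.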

[6] = test system: Italian ryegrass; experiment: Test C pre-/postemergence test; format: in vivo, Lolium multiflorum
Summary of the method: as §2

[7] = test system: bermudagrass; experiment: Test C pre-/postemergence test; format: in vivo, Cynodon dactylon
Summary of the method: as §2

[8] = test system: corn; experiment: Test C pre-/postemergence test; format: in vivo, Zea mays
Summary of the method: as §2

[9] = test system: crabgrass; experiment: Test C pre-/postemergence test; format: in vivo, Digitaria sanguinalis
Summary of the method: as §2

[10] = test system: Goosegrass; experiment: Test C pre-/postemergence test; format: in vivo, Eleusin indica
Summary of the method: as §2

[11] = test system: johnsongrass; experiment: Test C pre-/postemergence test; format: in vivo, Sorghum halepense
Summary of the method: as §2

[12] = test system: yellow nutsedge; experiment: Test C pre-/postemergence test; format: in vivo, Cyperus esculentus
Summary of the method: as §2

[13] = test system: pigweed; experiment: Test C pre-/postemergence test; format: in vivo, Amaranthus retroflexus
Summary of the method: as §2

[14] = test system: soybean; experiment: Test C pre-/postemergence test; format: in vivo, Glycine max
Summary of the method: as §2

[15] = test system: umbrella sedge; experiment: Test C flooded paddy test; format: in vivo, Cyperus difformis; details: Flood
Summary of the method: (§3)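 Flooded 3 cm over soil; compound into paddy water; depth kept constant. Greenhouse 13–15 d.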

[16] = test system: duck salad; experiment: Test C flooded paddy test; format: in vivo, Heteranthera limosa; details: Flood
Summary of the method: as §3

[17] = test system: barnyardgrass; experiment: Test C flooded paddy test; format: in vivo, Echinochloa crus-galli; details: Flood
Summary of the method: as §3

[18] = Postemergence, 500 g ai/ha, 0 is no effect, 100 is complete control
[19] = Preemergence, 125 g ai/ha, 0 no effect, 100 complete control
[20] = 62 g ai/ha, Preemergence, scale 0 to 100
[21] = 125 g ai/ha, preemergence, scale 0 (no effect) to 100 (complete control)
[22] = Postemergence, 62 g ai/ha, scale 0 to 100, 0 no effect, 100 complete control
[23] = Postemergence, 125 g ai/ha, scale 0 to 100, 0 no effect, 100 complete control
[24] = Postemergence, 250 g ai/ha, scale 0 to 100, 0 no effect, 100 complete control
[25] = Preemergence, 31 g ai/ha, scale 0 to 100 (0 no effect, 100 complete control)
[26] = preemergence, 250 g ai/ha, scale 0 (no effect) to 100 (complete control)
[27] = 62 g ai/ha, scale 0 to 100 (0 no effect, 100 complete control)
[28] = 250 g ai/ha, scale 0 to 100, 0 no effect, 100 complete control, 13 to 15 days

## Cn1nc(C(F)(F)F)c(C[S+]([O-])c2ccc(Cl)c[n+]2[O-])c1OCC(F)(F)F (racemic) [Compound 62]
[1]; Postemergence, 125 g ai/ha
  Plant response rating, Barnyardgrass: 80
[1]; [18]
  Barnyardgrass plant response rating: 90
[1]; [19]
  Barnyardgrass plant response rating: 90
[1]; Preemergence, 500 g ai/ha
  Plant response rating, Barnyardgrass: 100
[2]; Postemergence, 125 g ai/ha
  Plant response rating, Crabgrass, Large: 80
[2]; [18]
  Crabgrass, Large plant response rating: 90
[2]; [19]
  Crabgrass, Large plant response rating: 100
[2]; Preemergence, 500 g ai/ha
  Plant response rating, Crabgrass, Large: 100
[3]; Postemergence, 125 g ai/ha
  Plant response rating, Velvetleaf: 60
[3]; [18]
  Velvetleaf plant response rating: 90
[3]; [19]
  Velvetleaf plant response rating: 100
[3]; Preemergence, 500 g ai/ha
  Plant response rating, Velvetleaf: 100
[4]; Postemergence, 125 g ai/ha
  Plant response rating, Corn: 50
[4]; [18]
  Corn plant response rating: 70
[4]; [19]
  Corn plant response rating: 80
[4]; Preemergence, 500 g ai/ha
  Plant response rating, Corn: 90
[5]; [20]
  Foxtail, Green plant response rating: 100
[5]; [21]
  Foxtail, Green plant response rating: 100
[5]; Postemergence, 31 g ai/ha
  Plant response rating (0 to 100), Foxtail, Green: 0
[5]; [22]
  Plant response rating, Foxtail, Green: 20
[5]; [23]
  Plant response rating, Foxtail, Green: 40
[5]; [24]
  Plant response rating, Foxtail, Green: 80
[5]; [25]
  Plant response rating, Foxtail, Green: 80
[5]; [26]
  Foxtail, Green plant response rating: 100
[6]; [20]
  Ryegrass, Italian plant response rating: 85
[6]; [21]
  Ryegrass, Italian plant response rating: 90
[6]; Postemergence, 31 g ai/ha
  Plant response rating (0 to 100), Ryegrass, Italian: 0
[6]; Postemergence, 62 g ai/ha
  Plant response rating (0 to 100), Ryegrass, Italian: 0
[6]; [23]
  Plant response rating, Ryegrass, Italian: 80
[6]; [24]
  Plant response rating, Ryegrass, Italian: 90
[6]; [25]
  Plant response rating, Ryegrass, Italian: 70
[6]; [26]
  Ryegrass, Italian plant response rating: 100
[7]; 62 g ai/ha, Preemergence, scale 0 to 100 (0 no effect, 100 complete control)
  Bermudagrass plant response rating: 100
[7]; [21]
  Bermudagrass plant response rating: 100
[7]; Postemergence, 31 g ai/ha
  Plant response rating (0 to 100), Bermudagrass: 0
[7]; [22]
  Plant response rating, Bermudagrass: 0
[7]; [23]
  Plant response rating, Bermudagrass: 30
[7]; [24]
  Plant response rating, Bermudagrass: 35
[7]; [25]
  Plant response rating, Bermudagrass: 100
[7]; [26]
  Bermudagrass plant response rating: 100
[8]; [20]
  Corn plant response rating: 98
[8]; [21]
  Corn plant response rating: 100
[8]; Postemergence, 31 g ai/ha
  Plant response rating (0 to 100), Corn: 0
[8]; [22]
  Plant response rating, Corn: 0
[8]; [23]
  Plant response rating, Corn: 0
[8]; [24]
  Plant response rating, Corn: 10
[8]; [25]
  Plant response rating, Corn: 80
[8]; [26]
  Corn plant response rating: 100
[9]; [20]
  Crabgrass, Large plant response rating: 80
[9]; [21]
  Crabgrass, Large plant response rating: 100
[9]; Postemergence, 31 g ai/ha
  Plant response rating (0 to 100), Crabgrass, Large: 0
[9]; [22]
  Plant response rating, Crabgrass, Large: 0
[9]; [23]
  Plant response rating, Crabgrass, Large: 0
[9]; [24]
  Plant response rating, Crabgrass, Large: 50
[9]; [25]
  Plant response rating, Crabgrass, Large: 60
[9]; [26]
  Crabgrass, Large plant response rating: 100
[10]; [20]
  Goosegrass plant response rating: 100
[10]; [21]
  Goosegrass plant response rating: 100
[10]; Postemergence, 31 g ai/ha
  Plant response rating (0 to 100), Goosegrass: 0
[10]; [22]
  Plant response rating, Goosegrass: 0
[10]; [23]
  Plant response rating, Goosegrass: 10
[10]; [24]
  Plant response rating, Goosegrass: 50
[10]; [25]
  Plant response rating, Goosegrass: 100
[10]; [26]
  Goosegrass plant response rating: 100
[11]; [20]
  Johnsongrass plant response rating: 100
[11]; [21]
  Johnsongrass plant response rating: 100
[11]; Postemergence, 31 g ai/ha
  Plant response rating (0 to 100), Johnsongrass: 0
[11]; [22]
  Plant response rating, Johnsongrass: 0
[11]; [23]
  Plant response rating, Johnsongrass: 0
[11]; [24]
  Plant response rating, Johnsongrass: 0
[11]; [25]
  Plant response rating, Johnsongrass: 70
[11]; [26]
  Johnsongrass plant response rating: 100
[12]; [20]
  Nutsedge, Yellow plant response rating: 40
[12]; [21]
  Nutsedge, Yellow plant response rating: 70
[12]; Postemergence, 31 g ai/ha
  Plant response rating (0 to 100), Nutsedge, Yellow: 0
[12]; [22]
  Plant response rating, Nutsedge, Yellow: 0
[12]; [23]
  Plant response rating, Nutsedge, Yellow: 0
[12]; [24]
  Plant response rating, Nutsedge, Yellow: 0
[12]; [25]
  Plant response rating, Nutsedge, Yellow: 0
[12]; [26]
  Nutsedge, Yellow plant response rating: 100
[13]; [20]
  Pigweed plant response rating: 100
[13]; [21]
  Pigweed plant response rating: 100
[13]; Postemergence, 31 g ai/ha
  Plant response rating (0 to 100), Pigweed: 0
[13]; Postemergence, 62 g ai/ha
  Plant response rating (0 to 100), Pigweed: 0
[13]; [23]
  Plant response rating, Pigweed: 0
[13]; [24]
  Plant response rating, Pigweed: 5
[13]; [25]
  Plant response rating, Pigweed: 80
[13]; [26]
  Pigweed plant response rating: 100
[14]; [20]
  Soybean plant response rating: 100
[14]; [21]
  Soybean plant response rating: 100
[14]; Postemergence, 31 g ai/ha
  Plant response rating (0 to 100), Soybean: 30
[14]; Postemergence, 62 g ai/ha
  Plant response rating (0 to 100), Soybean: 50
[14]; [23]
  Plant response rating, Soybean: 60
[14]; [25]
  Plant response rating, Soybean: 70
[15]; [27]
  Plant response rating, Sedge, Umbrella: 0
[15]; [28]
  Plant response rating, Sedge, Umbrella: 100
[16]; [27]
  Plant response rating, Ducksalad: 70
[16]; [28]
  Plant response rating, Ducksalad: 85
[17]; [27]
  Plant response rating, Barnyardgrass: 30
[17]; [28]
  Plant response rating, Barnyardgrass: 70
